Assay results: patent publication US9670210B2, “Cyclopropylamines as LSD1 inhibitors” (Incyte Corporation, priority 2014, dated 2017)

molecular target: LSD-1 enzyme (Homo sapiens (Human), UniProt O60341)
Method: LSD1 Histone Demethylase Biochemical Assay
LANCE LSD1/KDM1A demethylase assay-10 μL of 1 nM LSD-1 enzyme (ENZO BML-SE544-0050) in the assay buffer (50 mM Tris, pH 7.5, 0.01% Tween-20, 25 mM NaCl, 5 mM DTT) were preincubated for 1 hour at 25° C. with 0.8 μL compound/DMSO dotted in black 384 well polystyrene plates. […] After stopping the reactions plates were incubated for 30 minutes and read on a PHERAstar FS plate reader (BMG Labtech).

Structure (SMILES)	IC50
COCC1(CN[C@@H]2C[C@H]2c2ccccc2)CCN(C(=O)c2cn(C)cn2)CC1 [Example 39, (1R,2S)—N-({4-(methoxymethyl)-1-[(1-methyl-1H-imidazol-4-yl)carbonyl]piperidin-4-yl}methyl)-2-phenylcyclopropanamine]	< 0.1 µM
COCC1(CN[C@@H]2C[C@H]2c2ccccc2)CCN(Cc2ccc(C(=O)O)cc2)CC1 [Example 62, 4-{[4-(methoxymethyl)-4-({[(1R,2S)-2-phenylcyclopropyl]amino}methyl)piperidin-1-yl]methyl}benzoic acid]	< 0.1 µM
N#Cc1ccc(OCC2(CN[C@@H]3C[C@H]3c3ccccc3)CCN(CC3(C(=O)O)CC3)CC2)cc1 [Example 81, 1-{[4-[(4-cyanophenoxy)methyl]-4-({[(1R,2S)-2-phenylcyclopropyl]amino}methyl)piperidin-1-yl]methyl}cyclopropanecarboxylic acid]	< 0.1 µM
COc1ccccc1NC(=O)N1CC(CN[C@@H]2C[C@H]2c2ccccc2)C1 (relative stereo) [Example 24, N-(2-Methoxyphenyl)-3-{[(trans-2-phenylcyclopropyl)amino]methyl}azetidine-1-carboxamide]	< 0.1 µM
N#Cc1ccc(OCC2(CN[C@@H]3C[C@H]3c3ccccc3)CCN(CC3(C(=O)O)CCC3)CC2)cc1 [Example 85, 1-{[4-[(4-cyanophenoxy)methyl]-4-({[(1R,2S)-2-phenylcyclopropyl]amino}methyl)piperidin-1-yl]methyl}cyclobutanecarboxylic acid]	< 0.1 µM
O=C(O)C1(CN2CCC(CN[C@@H]3C[C@H]3c3ccccc3)(COc3ccc(F)cn3)CC2)CC1 [Example 87, 1-{[4-{[(5-fluoropyridin-2-yl)oxy]methyl}-4-({[(1R,2S)-2-phenylcyclopropyl]amino}methyl)piperidin-1-yl]methyl}cyclopropanecarboxylic acid]	< 0.1 µM
CNC(=O)c1ccc(OCC2(CN[C@@H]3C[C@H]3c3ccccc3)CCN(CC3(C(=O)O)CC3)CC2)cn1 [Example 90, 1-{[4-[({6-[(methylamino)carbonyl]pyridin-3-yl}oxy)methyl]-4-({[(1R,2S)-2-phenylcyclopropyl]amino}methyl)piperidin-1-yl]methyl}cyclopropanecarboxylic acid]	< 0.1 µM
O=C(N1CCC(O)(c2ccccc2)CC1)N1CC(CN[C@@H]2C[C@H]2c2ccccc2)C1 (relative stereo) [Example 17, 4-Phenyl-1-[(3-{[(trans-2-phenylcyclopropyl)amino]methyl}azetidin-1-yl)carbonyl]piperidin-4-ol]	< 0.1 µM
COc1ccc(CC2(CN[C@@H]3C[C@H]3c3ccccc3)CCN(CC3(C(=O)O)CC3)CC2)cn1 [Example 69, 1-{[4-[(6-methoxypyridin-3-yl)methyl]-4-({[(1R,2S)-2-phenylcyclopropyl]amino}methyl)piperidin-1-yl]methyl}cyclopropanecarboxylic acid]	< 0.1 µM
O=C(N1CC(CNC2CC2c2ccccc2)C1)N1CCC[C@]2(CCN(C3CCC(O)CC3)C2=O)C1 (stereo partly drawn) [Example 11, (5S)-2-(cis-4-Hydroxycyclohexyl)-7-[(3-{[(trans-2-phenylcyclopropyl)amino]methyl}azetidin-1-yl)carbonyl]-2,7-diazaspiro[4.5]decan-1-one]	< 0.1 µM
N#Cc1ccc(CC2(CN[C@@H]3C[C@H]3c3ccccc3)CCN(CC3(C(=O)O)CC3)CC2)c(F)c1 [Example 74, 1-{[4-(4-cyano-2-fluorobenzyl)-4-({[(1R,2S)-2-phenylcyclopropyl]amino}methyl)piperidin-1-yl]methyl}cyclopropanecarboxylic acid]	< 0.1 µM
O=C(O)C1(CN2CCC(CN[C@@H]3C[C@H]3c3ccccc3)(Cc3ccc(F)cn3)CC2)CCC1 [Example 97, 1-{[4-[(5-fluoropyridin-2-yl)methyl]-4-({[(1R,2S)-2-phenylcyclopropyl]amino}methyl)piperidin-1-yl]methyl}cyclobutanecarboxylic acid]	< 0.1 µM
O=C(O)C1(CN2CCC(CN[C@@H]3C[C@H]3c3ccccc3)(COc3ccccc3F)CC2)CCC1 [Example 76, 1-{[4-[(2-fluorophenoxy)methyl]-4-({[(1R,2S)-2-phenylcyclopropyl]amino}methyl)piperidin-1-yl]methyl}cyclobutanecarboxylic acid]	< 0.1 µM
COCC1(CN[C@@H]2C[C@H]2c2ccccc2)CCN(C(=O)N2CCN(C)CC2)CC1 [Example 43, (1R,2S)—N-({4-(methoxymethyl)-1-[(4-methylpiperazin-1-yl)carbonyl]piperidin-4-yl}methyl)-2-phenylcyclopropanamine]	< 0.1 µM
N#Cc1ccc(OCC2(CN[C@@H]3C[C@H]3c3ccccc3)CCN(CC3(C(=O)O)CC3)CC2)c(F)c1 [Example 82, 1-{[4-[(4-cyano-2-fluorophenoxy)methyl]-4-({[(1R,2S)-2-phenylcyclopropyl]amino}methyl)piperidin-1-yl]methyl}cyclopropanecarboxylic acid]	< 0.1 µM
O=C(O)C1(CN2CCC(CN[C@@H]3C[C@H]3c3ccccc3)(COC3CCCCC3)CC2)CC1 [Example 94, 1-{[4-[(cyclohexyloxy)methyl]-4-({[(1R,2S)-2-phenylcyclopropyl]amino}methyl)piperidin-1-yl]methyl}cyclopropanecarboxylic acid]	< 0.1 µM

Structure (SMILES)	IC50
COCC1(CN[C@@H]2C[C@H]2c2ccccc2)CCN(C(=O)N2CCC[C@@H](O)C2)CC1 [Example 109, (3R)-1-{[4-(methoxymethyl)-4-({[(1R,2S)-2-phenylcyclopropyl]amino}methyl)piperidin-1-yl]carbonyl}piperidin-3-ol]	< 0.1 µM
O=C(O)C1(CN2CCC(CN[C@@H]3C[C@H]3c3ccccc3)(COc3ncccc3F)CC2)CC1 [Example 89, 1-{[4-{[(3-fluoropyridin-2-yl)oxy]methyl}-4-({[(1R,2S)-2-phenylcyclopropyl]amino}methyl)piperidin-1-yl]methyl}cyclopropanecarboxylic acid]	< 0.1 µM
COCC1(CN[C@@H]2C[C@H]2c2ccccc2)CCN(C(=O)c2ccc(N)nn2)CC1 [Example 40, 6-{[4-(methoxymethyl)-4-({[(1R,2S)-2-phenylcyclopropyl]amino}methyl)piperidin-1-yl]carbonyl}pyridazin-3-amine]	< 0.1 µM
COc1cccc(C(=O)N2CC(CN[C@@H]3C[C@H]3c3ccccc3)C2)c1 (relative stereo) [Example 27, N-{[1-(3-Methoxybenzoyl)azetidin-3-yl]methyl}-trans-2-phenylcyclopropanamine]	< 0.1 µM
COCC1(CN[C@@H]2C[C@H]2c2ccccc2)CCN(C(=O)[C@H]2CC[C@H](CO)CC2)CC1 [Example 100, (trans-4-{[4-(methoxymethyl)-4-({[(1R,2S)-2-phenylcyclopropyl]amino}methyl)piperidin-1-yl]carbonyl}cyclohexyl)methanol]	< 0.1 µM
COc1ccc(CC2(CN[C@@H]3C[C@H]3c3ccccc3)CCN(CC3(C(=O)O)CC3)CC2)cc1 [Example 98, 1-{[4-(4-methoxybenzyl)-4-({[(1R,2S)-2-phenylcyclopropyl]amino}methyl)piperidin-1-yl]methyl}cyclopropanecarboxylic acid]	< 0.1 µM
N#CCC1(CN[C@@H]2C[C@H]2c2ccccc2)CCN(Cc2cccc(F)c2)CC1 (relative stereo) [Example 9, (1-(3-Fluorobenzyl)-4-{[(trans-2-phenylcyclopropyl)amino]methyl}piperidin-4-yl)acetonitrile]	< 0.1 µM
COCC1(CN[C@@H]2C[C@H]2c2ccc(F)c(F)c2)CCN(CC2(C(=O)O)CCC2)CC1 [Example 65, 1-{[4-({[(1R,2S)-2-(3,4-difluorophenyl)cyclopropyl]amino}methyl)-4-(methoxymethyl)piperidin-1-yl]methyl}cyclobutanecarboxylic acid]	< 0.1 µM
O=C(O)C1(CN2CCC(CN[C@@H]3C[C@H]3c3ccccc3)(COC3CCCCC3)CC2)CCC1 [Example 95, 1-{[4-[(cyclohexyloxy)methyl]-4-({[(1R,2S)-2-phenylcyclopropyl]amino}methyl)piperidin-1-yl]methyl}cyclobutanecarboxylic acid]	< 0.1 µM
COCC1(CN[C@@H]2C[C@H]2c2ccccc2)CCN(CC2(C(=O)O)CC2)CC1 [Example 35, 1-{[4-(methoxymethyl)-4-({[(1R,2S)-2-phenylcyclopropyl]amino}methyl)piperidin-1-yl]methyl}cyclopropanecarboxylic acid]	< 0.1 µM
CC1(CN[C@@H]2C[C@H]2c2ccccc2)CCN(CC2(C(=O)O)CC2)CC1 [Example 44, 1-{[4-methyl-4-({[(1R,2S)-2-phenylcyclopropyl]amino}methyl)piperidin-1-yl]methyl}cyclopropanecarboxylic acid]	< 0.1 µM
O=C(N1CC(CNC2CC2c2ccccc2)C1)N1CCC[C@@]2(CCN(C3CCC(O)CC3)C2=O)C1 (stereo in doubt) [Example 10, (5R)-2-(cis-4-Hydroxycyclohexyl)-7-[(3-{[(trans-2-phenylcyclopropyl)amino]methyl}azetidin-1-yl)carbonyl]-2,7-diazaspiro[4.5]decan-1-one]	< 0.1 µM
O=C(Nc1cccc(F)c1)N1CC(CN[C@@H]2C[C@H]2c2ccccc2)C1 (relative stereo) [Example 20, N-(3-Fluorophenyl)-3-{[(trans-2-phenylcyclopropyl)amino]methyl}azetidine-1-carboxamide]	< 0.1 µM
O=C(O)C1(CN2CCC(CN[C@@H]3C[C@H]3c3ccccc3)(COCc3ccccc3)CC2)CC1 [Example 72, 1-{[4-[(benzyloxy)methyl]-4-({[(1R,2S)-2-phenylcyclopropyl]amino}methyl)piperidin-1-yl]methyl}cyclopropanecarboxylic acid]	< 0.1 µM
COCC1(CN[C@@H]2C[C@H]2c2ccccc2)CCN(C(=O)c2ccn(CCO)n2)CC1 [Example 108, 2-(3-{[4-(methoxymethyl)-4-({[(1R,2S)-2-phenylcyclopropyl]amino}methyl)piperidin-1-yl]carbonyl}-1H-pyrazol-1-yl)ethanol]	< 0.1 µM
O=S(=O)(c1ccc(OC(F)(F)F)cc1)N1CC(CN[C@@H]2C[C@H]2c2ccccc2)C1 (relative stereo) [Example 30, Trans-2-phenyl-N-[(1-{[4-(trifluoromethoxy)phenyl]sulfonyl}azetidin-3-yl)methyl]cyclopropanamine]	< 0.1 µM
